The text below walks through data of US11202761B2, “Formulations for oral delivery of adsorbents in the gut” (Da Volterra, priority 2010, dated 2021).

A short description of assay [1]: in vitro adsorption of various antibiotics onto activated charcoal. The assay is classed as physicochemical. The note with it: PBS pH 6, 37° C. As for the experimental part:
(15 ml polypropylene tube, slow rotation 20 rpm), • sampling at 0.5 h, 1 h and 2 h, • Residual antibiotic dosage (i.e., not adsorbed) was determined by UV/visible spectrophotometric analysis.

For assay [2] the following is noted: 10:1 ratio of activated charcoal/irinotecan, 200 μg/mL, simulated ileal medium pH 7.5.
Excerpt: Samples were centrifuged, filtered, and diluted ten-fold, prior to determination of the non-adsorbed concentration of irinotecan by measuring its absorbance at 368 nm using a spectrophotometer.
A short description of assay [3]: In vitro adsorption kinetics of SN-38 onto activated charcoal. Format: physicochemical. The note with it: activated charcoal/SN-38 ratio of 10:1, 50 μg/mL in 0.01 M NaOH pH 12. As for the experimental part: SN-38 was dissolved at a concentration of 50 μg/mL in 0.01 M NaOH pH 12. Non adsorbed SN-38 was detected after centrifugation and filtration by at its absorbance at 411 nm using a spectrophotometer.

For another assay, the target named is T1, topoisomerase I (Homo sapiens, UniProt P11387).
T1 sequence (P11387 1-765): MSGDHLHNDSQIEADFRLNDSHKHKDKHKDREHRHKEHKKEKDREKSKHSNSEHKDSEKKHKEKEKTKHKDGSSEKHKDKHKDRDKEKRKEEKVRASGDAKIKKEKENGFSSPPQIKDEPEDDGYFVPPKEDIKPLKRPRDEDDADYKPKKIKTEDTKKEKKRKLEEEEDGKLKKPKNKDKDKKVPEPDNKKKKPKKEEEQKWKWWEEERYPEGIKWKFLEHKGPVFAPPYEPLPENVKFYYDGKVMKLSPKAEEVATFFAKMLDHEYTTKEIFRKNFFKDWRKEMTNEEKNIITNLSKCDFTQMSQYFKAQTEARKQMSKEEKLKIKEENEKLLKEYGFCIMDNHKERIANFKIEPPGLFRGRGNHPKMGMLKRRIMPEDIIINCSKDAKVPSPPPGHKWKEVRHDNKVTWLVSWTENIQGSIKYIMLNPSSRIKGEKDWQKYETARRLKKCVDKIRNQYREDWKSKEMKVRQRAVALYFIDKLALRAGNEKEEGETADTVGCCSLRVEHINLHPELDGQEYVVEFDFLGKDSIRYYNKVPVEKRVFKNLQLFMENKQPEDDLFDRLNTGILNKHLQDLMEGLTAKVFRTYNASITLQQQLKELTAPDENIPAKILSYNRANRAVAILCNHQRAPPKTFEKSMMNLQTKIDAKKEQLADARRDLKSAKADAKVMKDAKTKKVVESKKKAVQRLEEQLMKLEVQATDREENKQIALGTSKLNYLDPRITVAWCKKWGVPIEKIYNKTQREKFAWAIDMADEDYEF
The note with it: in vitro; cited from earlier work.

The nature of assay [4]: Kinetics of ciprofloxacin adsorption by activated charcoal measured by microbiological assay. Conditions: ciprofloxacin 50 μg/ml, 150 μg/ml activated charcoal, pH 6.0.
Description: The microbiological assay consists in measuring the biological activity of an antibiotic, i.e. its capacity to inhibit the growth of an indicator bacterial strain. […] 20 μl samples containing the antibiotic to be measured were spotted onto paper discs applied directly onto the surface of the agar plates. After 18 h incubation at 37° C., the diameters of the zones around the paper discs where bacterial growth had been inhibited by the presence of the antibiotic were measured.
Where [5] appears, read: start 3/1, extra charcoal: 6/1 after 1 h and 9/1 after 2 h.
The mark [6] stands for this setting: start 10/1, extra charcoal: 20/1 after 1 h and 30/1 after 2 h.

Each structure is given as a SMILES string. Read-outs that look alike come from different tables or passages of the source.

Take `CN[C@H](CC(C)C)C(=O)N[C@H]1C(=O)N[C@@H](CC(N)=O)C(=O)N[C@H]2C(=O)N[C@H]3C(=O)N[C@H](C(=O)N[C@H](C(=O)O)c4cc(O)cc(O)c4-c4cc3ccc4O)[C@H](O)c3ccc(c(Cl)c3)Oc3cc2cc(c3O[C@@H]2O[C@H](CO)[C@@H](O)[C@H](O)[C@H]2O[C@H]2C[C@](C)(N)[C@H](O)[C@H](C)O2)Oc2ccc(cc2Cl)[C@H]1O` [Vancomycin]: the results for the “Residual antibiotic after 2 h (*)” value in assay [1] (setting [5]) and in assay [1] (setting [6]) were 27% and under 1.25%, respectively.

As to `O=C(O)[C@H]1/C(=C/CO)O[C@@H]2CC(=O)N21` [Clavulanate], the “Residual antibiotic after 2 h (*)” value in assay [1] (setting [5]) amounted to 22%; in assay [1] (setting [6]) it was 3.5%.

With `CCc1c2c(nc3ccc(OC(=O)N4CCC(N5CCCCC5)CC4)cc13)-c1cc3c(c(=O)n1C2)COC(=O)[C@]3(O)CC` [irinotecan, Irinotecan], the “time to complete adsorption” value in assay [2] is listed as “about 15 minutes”.

With `C[C@]1(Cn2ccnn2)[C@H](C(=O)O)N2C(=O)C[C@H]2S1(=O)=O` [Tazobactam], the “Residual antibiotic after 2 h (*)” value in assay [1] (setting [5]) is under 20%.

On to `CN(C)c1cc(NC(=O)CNC(C)(C)C)c(O)c2c1C[C@H]1C[C@H]3[C@H](N(C)C)C(O)=C(C(N)=O)C(=O)[C@@]3(O)C(O)=C1C2=O` [Tigecycline], for which, in assay [1] (setting [5]), the “Residual antibiotic after 2 h (*)” value amounted to 21%.

Consider `CCc1c2c(nc3ccc(O)cc13)-c1cc3c(c(=O)n1C2)COC(=O)[C@]3(O)CC` [SN-38, 7-ethyl-10-hydroxycamptothecin], for which, in assay [3], the “time to complete adsorption” value was about 30 min. Besides, the “antineoplastic activity relative to the prodrug form (Irinotecan)” value on topoisomerase I was 1000 fold.

Take `CC[C@H]1OC(=O)C[C@@H](O)[C@H](C)[C@@H](O[C@@H]2O[C@H](C)[C@@H](O[C@H]3C[C@@](C)(O)[C@@H](O)[C@H](C)O3)[C@H](N(C)C)[C@H]2O)[C@@H](CC=O)C[C@@H](C)C(=O)/C=C/C(C)=C/[C@@H]1CO[C@@H]1O[C@H](C)[C@@H](O)[C@@H](OC)[C@H]1OC` [Tylosine]: the “Residual antibiotic after 2 h (*)” value in assay [1] (setting [5]) and in assay [1] (setting [6]) was under 3% each time.

For `O=C(O)c1cn(C2CC2)c2cc(N3CCNCC3)c(F)cc2c1=O` [Ciprofloxacine], the “antibiotic adsorbed by the charcoal” value in assay [4] (time zero sample = approximately one minute of contact) is reported as about 70%. In addition, the “antibiotic adsorbed onto the charcoal” value in assay [4] (within one hour) is “Almost all of the antibiotic was adsorbed”.
